Converted amounts (≈) assume the structure as drawn. The source made the active and inactive calls. The calls are words filed in the database; no cut-off is given here.
Assays:
Candida albicans = assay: Antimicrobial activity against Candida albicans clinical isolate at 0.005 to 0.4 umol/ml after 24 hrs by broth dilution assay; assay type: functional, organism-based
Human alphaherpesvirus 1 = assay: Antiviral activity against Herpes simplex virus 1 infected in human KB cells assessed as inhibition of virus induced cytopathic effects at 1 to 1000 ug/ml after 72 hrs; assay type: functional, organism-based
KB = assay: Antiviral activity against Rhinovirus type 13 infected in human KB cells assessed as inhibition of virus-induced cytopathic effect at 1 to 1000 ug/ml after 72 hrs; assay type: functional, cell-based; details: Human rhinovirus A13
Human respirovirus 3 = assay: Antiviral activity against Parainfluenza virus type 3 infected in human KB cells assessed as inhibition of virus-induced cytopathic effect at 1 to 1000 ug/ml after 72 hrs; assay type: functional, organism-based
Escherichia coli = assay: Antimicrobial activity against Escherichia coli clinical isolate at 0.005 to 0.4 umol/ml after 24 hrs by broth dilution assay; assay type: functional, organism-based
Klebsiella pneumoniae = assay: Antimicrobial activity against Klebsiella pneumoniae clinical isolate at 0.005 to 0.4 umol/ml after 24 hrs by broth dilution assay; assay type: functional, organism-based
Proteus mirabilis = assay: Antimicrobial activity against Proteus mirabilis clinical isolate at 0.005 to 0.4 umol/ml after 24 hrs by broth dilution assay; assay type: functional, organism-based
Staphylococcus aureus [1] = assay: Antimicrobial activity against Staphylococcus aureus clinical isolate at 0.005 to 0.4 umol/ml after 24 hrs by broth dilution assay; assay type: functional, organism-based
[2] = tested on: Trichophyton mentagrophytes; assay: Antimicrobial activity against Trichophyton mentagrophytes clinical isolate at 0.005 to 0.4 umol/ml after 48 hrs by broth dilution assay; assay type: functional, organism-based
Staphylococcus aureus [3] = assay: Antimicrobial activity against Staphylococcus aureus clinical isolate after 24 hrs by broth dilution assay; assay type: functional
[4] = tested on: Trichophyton mentagrophytes; assay: Antimicrobial activity against Trichophyton mentagrophytes clinical isolate after 48 hrs by broth dilution assay; assay type: functional

How did the Activity (Candida albicans) turn out when O=c1nccc2n([C@@H]3O[C@H](CO)[C@@H](O)[C@@H]3O)ccn12 was run?
The Activity was “inactive”.

And the Activity (Human alphaherpesvirus 1)?
The Activity was “inactive”.

And the Activity (KB)?
Its Activity is “inactive”.

And the Activity (Human respirovirus 3)?
The Activity was “inactive”.

And the Activity (Escherichia coli)?
The Activity was “inactive”.

And the Activity (Klebsiella pneumoniae)?
The Activity was “inactive”.

And the Activity (Proteus mirabilis)?
Its Activity is “inactive”.

What about the Activity (Staphylococcus aureus [1]) of the same compound?
Its Activity is “inactive”.

What about the Activity [2] of the same compound?
The Activity was “inactive”.

Which Activity (Candida albicans) does the source give for Nc1cc2n([C@@H]3O[C@H](CO)[C@@H](O)[C@@H]3O)ccn2c(=O)n1 here?
The Activity was “inactive”.

And the Activity (Human alphaherpesvirus 1)?
Its Activity is “inactive”.

What about the Activity (KB) of the same compound?
Its Activity is “inactive”.

And the Activity (Human respirovirus 3)?
The Activity was “inactive”.

What about the Activity (Escherichia coli) of the same compound?
The Activity was “inactive”.

And the Activity (Klebsiella pneumoniae)?
Its Activity is “inactive”.

And the Activity (Proteus mirabilis)?
Its Activity is “inactive”.

And the Activity (Staphylococcus aureus [1])?
The Activity was “inactive”.

And the Activity [2]?
Its Activity is “inactive”.

Which Activity (Candida albicans) does the source give for O=c1nccc2n([C@@H](CO)OC(CO)CO)ccn12 here?
The Activity was “inactive”.

And the Activity (Human alphaherpesvirus 1)?
Its Activity is “inactive”.

What about the Activity (KB) of the same compound?
Its Activity is “inactive”.

And the Activity (Human respirovirus 3)?
The Activity was “inactive”.

What about the Activity (Escherichia coli) of the same compound?
The Activity was “inactive”.

What about the Activity (Klebsiella pneumoniae) of the same compound?
Its Activity is “inactive”.

And the Activity (Proteus mirabilis)?
The Activity was “inactive”.

What about the Activity (Staphylococcus aureus [1]) of the same compound?
Its Activity is “inactive”.

What about the Activity [2] of the same compound?
Its Activity is “inactive”.

How did the Activity (Candida albicans) turn out when O=c1nc(Cl)cc2n([C@@H]3O[C@H](COCc4ccccc4)[C@@H](OCc4ccccc4)[C@@H]3OCc3ccccc3)ccn12 was run?
Its Activity is “inactive”.

What about the Activity (Human alphaherpesvirus 1) of the same compound?
The Activity was “inactive”.

What about the Activity (KB) of the same compound?
Its Activity is “inactive”.

What about the Activity (Human respirovirus 3) of the same compound?
Its Activity is “inactive”.

What about the Activity (Escherichia coli) of the same compound?
Its Activity is “inactive”.

What about the Activity (Klebsiella pneumoniae) of the same compound?
Its Activity is “inactive”.

What about the Activity (Proteus mirabilis) of the same compound?
Its Activity is “inactive”.

What about the Activity (Staphylococcus aureus [1]) of the same compound?
The Activity was “inactive”.

What about the Activity [2] of the same compound?
Its Activity is “inactive”.

Which results are given for C[Si](C)(C)Oc1nc(Cl)cc2nccn12?
Activity (Candida albicans): inactive; Activity (Human alphaherpesvirus 1): inactive; Activity (KB): inactive; Activity (Human respirovirus 3): inactive; Activity (Escherichia coli): inactive; Activity (Klebsiella pneumoniae): inactive; Activity (Proteus mirabilis): inactive; Activity (Staphylococcus aureus [1]): inactive; Activity [2]: inactive

What does the source list for Nc1cc2n([C@@H]3O[C@H](COCc4ccccc4)[C@@H](OCc4ccccc4)[C@@H]3OCc3ccccc3)ccn2c(=O)n1?
MIC (Staphylococcus aureus [3]): 160 µM (≈ 88.4 µg/mL); MIC [4]: 40 µM (≈ 22.1 µg/mL); Activity (Candida albicans): inactive; Activity (Human alphaherpesvirus 1): inactive; Activity (KB): Active; Activity (Human respirovirus 3): inactive; Activity (Escherichia coli): inactive; Activity (Klebsiella pneumoniae): inactive; Activity (Proteus mirabilis): inactive

What does the source list for O=c1nccc2n([C@@H]3O[C@H](COCc4ccccc4)[C@@H](OCc4ccccc4)[C@@H]3OCc3ccccc3)ccn12?
MIC (Staphylococcus aureus [3]): 160 µM (≈ 86 µg/mL); MIC [4]: 40 µM (≈ 21.5 µg/mL); Activity (Candida albicans): inactive; Activity (Human alphaherpesvirus 1): inactive; Activity (KB): Active; Activity (Human respirovirus 3): inactive; Activity (Escherichia coli): inactive; Activity (Klebsiella pneumoniae): inactive; Activity (Proteus mirabilis): inactive

For Cl[C@H]1O[C@H](COCc2ccccc2)[C@@H](OCc2ccccc2)[C@@H]1OCc1ccccc1, which Activity (Candida albicans) is on record?
The Activity was “inactive”.

What about the Activity (Human alphaherpesvirus 1) of the same compound?
Its Activity is “inactive”.

And the Activity (KB)?
Its Activity is “inactive”.

And the Activity (Human respirovirus 3)?
Its Activity is “inactive”.

What about the Activity (Escherichia coli) of the same compound?
The Activity was “inactive”.

What about the Activity (Klebsiella pneumoniae) of the same compound?
Its Activity is “inactive”.

What about the Activity (Proteus mirabilis) of the same compound?
The Activity was “inactive”.

And the Activity (Staphylococcus aureus [1])?
Its Activity is “inactive”.

And the Activity [2]?
The Activity was “inactive”.

From ChEMBL document CHEMBL3272307, “Imidazo(1,2-c)pyrimidine nucleosides. Synthesis and biological evaluation of certain 1-(beta-D-arabinofuranosyl)imidazo(1,2-c)pyrimidines” (1976)
